According to patent US7648978B2, “Small molecule modulators of cytokine activity” (Angion Biomedica Corp., priority 2004, dated 2010):

How the values were obtained:
Format in all cases: cell-based
[1] = test system: Endothelial cells (HUVECs); assay: HUVEC proliferation (3H-thymidine incorporation); conditions: Homo sapiens, Table 1, read-out: HUVEC ED50
Procedure: (§1) a. Proliferation. The following assay was performed to assess the activity of the compounds of the invention in cell proliferation. Endothelial cells (HUVECs) were seeded in 96-well plates at a density of 10,000 cells per well in the normal growth medium (EGM-2-Clonetics) containing 2% fetal bovine serum, FGF, VEGF, IGF, ascorbic acid, EGF, GA, heparin and hydrocortisone. The cells were grown normally in the growth medium for 24 hr at 37° C. and 5% CO2. The cells were then rinsed with RPMI-1% BSA and starved for 1-2 hr. The stock solutions of the compounds of the invention were made at a concentration of 10 mg/ml in DMSO and diluted in RPMI-1% BSA at final concentrations of 0.001 uM to 50 uM. The cells were then washed and treated with the compounds and incubated for another 20 hr at 37° C. Then ^3H thymidine (0.5 microgram/ml in RPMI-BSA) was added to the cells and incubated at 37° C. for 4 hr. The unincorporated thymidine was removed by washing the cells four times with 1×PBS. Then the cells were lysed with 0.5M NaOH for 30 min and the radioactivity counted in the beta counter. A similar proliferation assay using monkey bronchial epithelial cells (4MBR-5) and oligodendrocyte cells was also employed.

oligodendrocytes = assay: Oligodendrocyte proliferation; conditions: Mus musculus, Table 2, read-out: Oligodendrocyte ED50
Procedure: as §1
e. Stimulation of Oligodendrocyte Proliferation. Mouse primary oligodendrocytes (Celprogen, Calif.) were seeded in 96-well plates at 5000 cells/well in serum-free medium for 16 hours. Cells were treated with test compound or HGF/SF (positive control) for 16-24 hours. WST1 cell proliferation reagent (Roche, N.J.) was added to oligodendrocytes, and incubation was continued for another 4-5 hours. Cells with WST1 reagent were read using a plate reader at an OD of 490 nm.

monocytes / HUVECs = assay: Monocyte migration and binding to CRP-treated HUVECs; VCAM-1 and MCP-1 expression; conditions: CRP 25 ug/ml, test compound 10 uM or HGF 50 ng/ml
Procedure: a. Compound treatment decreases monocyte migration and binding to ECs. […] HUVECs were incubated with CRP (25 ug/ml), CRP together with test compound (10 uM) or HGF (50 ng/ml). The cellular extracts with lysis buffer and analyzed for VCAM-1 and MCP-1 expression via Western blot analysis. For Monocyte binding and migration experiments, monocytes were labeled with a fluorescent dye Vybrant Did (Molecular Probes) and treated to the HUVECs treated as above.

Compound	EC50 [1]	further results
CC1CCCCN1c1ccc(-c2n[nH]c(=O)c3ccccc23)cc1[N+](=O)[O-] (stereo not shown)	2000 nM	
CCC1CCCCN1c1ccc(-c2n[nH]c(=O)c3ccccc23)cc1[N+](=O)[O-] (stereo not shown)	3000 nM	
CCCC1CCN(c2ccc(-c3n[nH]c(=O)c4ccccc34)cc2[N+](=O)[O-])CC1	4000 nM	
CC1CCCN(c2ccc(-c3n[nH]c(=O)c4ccccc34)cc2[N+](=O)[O-])C1 (stereo not shown)	3000 nM	
O=c1[nH]nc(-c2ccc(N3CCCCCC3)c([N+](=O)[O-])c2)c2ccccc12 [drawing 50]	2500 nM	
O=c1[nH]nc(-c2ccc(N3CCCCC3)c([N+](=O)[O-])c2)c2ccccc12 [drawing 51]	10000 nM	
CC1CCN(c2ccc(-c3n[nH]c(=O)c4ccccc34)cc2[N+](=O)[O-])CC1 [drawing 52]	5000 nM	
O=c1[nH]nc(-c2ccc(N3CCCCCC3)c([N+](=O)[O-])c2)c2ccccc12 [drawing 57]		EC50 (oligodendrocytes): 200 nM
O=c1[nH]nc(-c2ccc(N3CCCCC3)c([N+](=O)[O-])c2)c2ccccc12 [drawing 58]		EC50 (oligodendrocytes): 200 nM
CC1CCN(c2ccc(-c3n[nH]c(=O)c4ccccc34)cc2[N+](=O)[O-])CC1 [drawing 59]		EC50 (oligodendrocytes): 200 nM
HGF: Scatter factor / hepatocyte growth factor, a pleiotropic growth factor; used as positive control		monocyte migration and binding to endothelial cells (monocytes / HUVECs; FIG. 17): decreased; MCP-1 expression (monocytes / HUVECs; Western blot): decreased; VCAM-1 expression (monocytes / HUVECs; Western blot): decreased
